Counter-ions that a name gives are not always drawn.
Assays:
[1] = Example 2: stability of sapropterin hydrochloride mixed 1:5 with sweeteners, uncapped vial 40° C., 75% RH; assay type: physicochemical; conditions: 8 weeks
Description: Sapropterin hydrochloride was mixed at a 1:5 ratio with each of the three sweeteners described above. 2 g of the mixture was placed in a glass vial and the vial was left uncapped at 40° C., 75% RH, to evaluate the stability of the preparation and sapropterin hydrochloride. […] The preparations using sucrose and fructose even underwent deliquescence. The remaining sapropterin hydrochloride was quantified by liquid chromatography that can differentiate sapropterin hydrochloride from its analogues. The area of the peak for sapropterin hydrochloride was determined and was used to calculate the remaining sapropterin hydrochloride (The same procedure was followed in other examples).

[2] = Example 7: stability of sapropterin hydrochloride blended 200:1 with coloring agents; assay type: physicochemical
Description: Sapropterin hydrochloride was mixed at a 200:1 ratio with different coloring agents. 0.2 g of each mixture was placed in a glass vial, which was then sealed with a metal cap and was stored at 40° C. and 75% RH for 4 weeks. Subsequently, the mixtures were evaluated for stability (i.e., change in appearance, amount of remaining active ingredient).

C[C@H](O)[C@H](O)[C@H]1CNc2nc(N)[nH]c(=O)c2N1 [None, sapropterin hydrochloride]
% amount of remaining sapropterin hydrochloride after storage [1]: 98.7% | Appearance after storage [1]: Yellowish white | % amount remained ([2]; After 4-week storage (40° C./75% RH), sealed vial): 99.6% | Initial appearance ([2]; before storage): White

Source: patent US20080207624A1, “Therapeutic Agent for Bh4-Responsive Hyperphenylalaninemia” (priority 2004, published 2008)
